These are literature values, as cited in patent US20020102214A1, “Paramagnetic material-containing magnetic resonance external marker or calibration composition” (NYCOMED IMAGING AS., priority 1996, published 2002).

Each structure is given as a SMILES string.

The conditions of this data set: at MRI fields, between 20° C. to 35° C., based on relaxivity data.

As to `O=C([O-])CN(CCN(CC(=O)[O-])CC(=O)O)CCN(CC(=O)[O-])CC(=O)O.[Gd+3]` [GdDTPA], the “variation of signal intensity with temperature” value is listed as “about 20%”.
